The record followed here is US11597745B2, “β-modified phosphoric acid compound precursor, β-modified phosphoric acid compound, reaction inhibitor and medicine containing the same, and method for inhibiting reaction” (priority 2018, dated 2023).

In data set [1] the test system is HIV-1 (NL4-3) WT. The experiment in a line: Anti-HIV activity measurement, TZM-bl cells, luciferase. Format: cell-based. Particulars: for EC50: Human immunodeficiency virus 1, NL43, TZM-bl, read-out: EC50 for HIV. The procedure: (§1) TZM-bl cells were cultured in a medium in which fetal bovine serum (Japan Bio Serum) having a final concentration of 10% had been added into Dulbecco's modified Eagle's Medium (DMEM) (SIGMA/Cat. No. D5796), under the conditions of 37° C. and 5% CO2. TZM-bl cells were plated in a 96-well microplate (1.3×10^4 cells/100 μL DMEM+10% FBS). On the following day, a drug solution, and HIV-1 (NL4-3, 10 ng) were added to the culture medium in this order. After two days, […] of culture supernatant was removed, 100 μL of 1×Steady Glo (Promega/Cat. No. E2510) was added into the resultant medium, luciferase in 80 μL of scraped cell lysate was quantified with a dedicated plate (Coster/Cat. No. 3912) IESEL, VERITAS Microplate Luminometer (Promega), and the anti-HIV-1 activity (EC50) of the drug was calculated. Experiments were performed on multiple compounds by using various types of viruses. In Table (A), the “AZT” means azidothymidine, the “Lamivudine” means lamivudine, and the “Didanosine” means didanosine.

The subject of data set [2] is HIV M41L/T69SSG/T215Y. Described as above. The data set is classed as cell-based, HIV-1. Particulars: for EC50: Human immunodeficiency virus 1, TZM-bl, read-out: EC50 for HIV. As for the experimental part: as §1
Data set [3] has as its system HIV M184V. The description is as above. Particulars: Human immunodeficiency virus 1, TZM-bl, read-out: EC50 for HIV. Format: cell-based, HIV-1. The procedure: as §1
For data set [4], the system named is HIV M41L/T215Y. The description is as above. The data set is classed as cell-based, HIV-1. Particulars: Human immunodeficiency virus 1, TZM-bl, read-out: EC50 for HIV. As for the experimental part: as §1
Data set [5] concerns HBV (genotype C) in EB-HBCe cells. Kind of data set: Anti-HBV activity: HBV DNA of viral particles in culture supernatant of EB-HBCe cells by qPCR. The data set is classed as cell-based, hepatitis B virus. The settings on record: FIG. 5; for anti-HBV activity (HBV DNA): various final concentrations, 9 days, activity higher at higher concentration. The procedure:
A cell line EB-HBCe, which is derived from a human liver cancer cell HuH-7 and in which the HBV genome (genotype C) constantly replicates, was plated in a 24-well plate, respective compound were added at various final concentrations into the plate, and the cell line EB-HBCe was cultured for 9 days. During the culture, the medium was replaced with new one and the above compounds were added at the same concentration into the plate, every three days.
The culture supernatant was collected, the viral particles were precipitated by the addition of a PNE solution (8.45% PEG 6000, 0.445 M NaCl, 13 mM EDTA), and then the nucleic acids outside the particles were removed by the treatment with DNase I (TAKARA BIO INC.) and RNase A (TAKARA BIO INC.) at 37° C. for 1 hour. Further, after the overnight treatment with Proteinase K, the DNA was extracted with phenol/chloroform, and precipitated with ethanol. The precipitate was solubilized, and then the HBV DNA was quantitatively measured by using SYBR qPCR Mix Kit (TOYOBO CO., LTD.). In FIG. 5, the “SelenoA” indicates the results of addition of compound 13, and the “entecavir” indicates the result of addition of entecavir.
For orientation: In qPCR the cycle at which signal appears reflects the starting amount.

Data set [6] is described as follows: Cytotoxicity evaluation, MTT assay. The data set is classed as cell-based. The settings on record: human; MT-4 cells, MTT, 5th day of culture. As for the experimental part: (§2) In MTT assay, Celltiter 96 Non-radioactive Cell Proliferation Assay (Promega) was used. MT-4 cells were infected with HIV-1 NL4-3 at multiplicity of infection (MOI)=0.001. HIV-1-infected (37° C., 1-1.5 hours) or -uninfected MT-4 cells (2.5×10^5/ml, 100 μL) were aliquoted into a 96-well microplate (final DMSO concentration: 0.5%), and the culture was started at 37° C. and 5% CO2. On the 5th day of the culture, the culture supernatant (100 μL) was removed, 15 μL of dye solution (MTT reagent) was added into each well, and the cells were cultured in a CO2 incubator for 1 hour. Subsequently, 100 μL of solubilization solution/stop mix was added into each well, mixed sufficiently, and the obtained mixture was left to stand at 4° C. overnight. After returning the temperature of the plate to room temperature, DD570/690 was measured with a spectrophotometer (BIO-TEK ELx808, CC50).
In general terms: Formazan colour is commonly taken as a measure of viable cells.

The test system of data set [7] is MT-4 cells. The experiment in a line: Cytotoxicity evaluation, MTT assay. Format: cell-based. Particulars: comparison in words from Table 1 (B). As for the experimental part: as §2

The structures appear in SMILES notation. Bounds are passed on as bounds.

As usually defined, the EC50 is the concentration giving half of the maximal effect. `O=c1[nH]cnc2c1ncn2[C@H]1CC[C@@H](CO)O1` [Didanosine, didanosine, reference compound]: the EC50 in data set [1] was 3200 nM; in data set [2], 17000 nM; in data set [3], 8300 nM; in data set [4], 5600 nM.

For `Nc1ccn([C@@H]2CS[C@H](CO)O2)c(=O)n1` [Lamivudine, lamivudine, reference compound], the EC50 in data set [1] is 1200 nM; in data set [2], 24000 nM; in data set [3], greater than 100000 nM; in data set [4] it was 1700 nM.

Turning to `CCCSSC1[C@@H](O)[C@@H](COP(O)(=N[C@@H](C)C(=O)OC(C)C)Oc2ccccc2)O[C@H]1n1cnc2c(N)ncnc21` (some centres unmarked) [Pro A], the “anti-HBV activity (HBV DNA)” value in data set [5] was “showed anti-HBV activity”.

For orientation: CC50 means the concentration at which the toxic effect on the cells reaches its halfway point. Turning to `C[Se]C1[C@@H](O)[C@@H](COP(O)(=N[C@@H](C)C(=O)OC(C)C)Oc2ccccc2)O[C@H]1n1cnc2c(N)ncnc21` (some centres unmarked) [Pro SelenoA], the EC50 in data set [1] was 980 nM; in data set [2], 1400 nM; in data set [3], 2000 nM; in data set [4] it was 1300 nM. In addition, in data set [1] (comparison in words from Table 1 (A), all virus types), the “anti-HIV activity compared with Lamivudine and Didanosine” value is listed as “higher anti-HIV activity”. In addition, the “anti-HBV activity, ranking among SelenoA, Pro SelenoA and Pro A” value in data set [5] (concentration of addition 10 μM) is listed as “highest anti-HBV activity among these three kinds”. The “anti-HBV activity (HBV DNA)” value in data set [5] is listed as “showed anti-HBV activity”. The half-maximal cytotoxic concentration (CC50) at 5 day in data set [6] is greater than 100000 nM. The “toxicity compared with AZT” value in data set [7] is given as “lower”. For the same molecule, the “anti-HIV activity compared with AZT” value in data set [2] (HIV-type M41L/T69SSG/T215Y, comparison in words from Table 1 (A)) is reported as “more excellent anti-HIV activity”.

For the molecule `Nc1ncnc2c1ncn2[C@@H]1O[C@H](CO)[C@@H](O)[C@H]1[SeH]` [SelenoA, Seleno adenosine], the “anti-HBV activity (HBV DNA)” value in data set [5] is reported as “showed anti-HBV activity”.
